Test results from ChEMBL document CHEMBL3785084, “Rational modification of the lead molecule: Enhancement in the anticancer and dihydrofolate reductase inhibitory activity” (Bioorg Med Chem Lett, 2016).

System: M14
Experiment: Cytotoxicity against human M14 cells assessed as cell growth at 10^-5 M after 48 hrs by sulforhodamine B assay
Assay type: functional
Details: M14, 48 h, read-out: Activity

Q: Which growth at 10 µM does the source give for `CN1C(=O)C(=Cc2cn(CC(O)Cn3cc(C=C4C(=O)N(C)C(=O)N(C)C4=O)c4ccccc43)c3ccccc23)C(=O)N(C)C1=O` here?
A: Its growth at 10 µM is 89.7%.

System: MDA-MB-435
Experiment: Cytotoxicity against human MDA-MB-435 cells assessed as cell growth at 10^-5 M after 48 hrs by sulforhodamine B assay
Assay type: functional
Details: MDA-MB-435, 48 h, read-out: Activity

Q: With `CN1C(=O)C(=Cc2cn(CC(O)Cn3cc(C=C4C(=O)N(C)C(=O)N(C)C4=O)c4ccccc43)c3ccccc23)C(=O)N(C)C1=O` as the molecule, how does the growth at 10 µM read?
A: Its growth at 10 µM is 107%.

System: SK-MEL-2
Experiment: Cytotoxicity against human SK-MEL-2 cells assessed as cell growth at 10^-5 M after 48 hrs by sulforhodamine B assay
Assay type: functional
Details: SK-MEL-2, 48 h, read-out: Activity

Q: For `CN1C(=O)C(=Cc2cn(CC(O)Cn3cc(C=C4C(=O)N(C)C(=O)N(C)C4=O)c4ccccc43)c3ccccc23)C(=O)N(C)C1=O`, which growth at 10 µM is on record?
A: Its growth at 10 µM is 118%.

System: SK-MEL-28
Experiment: Cytotoxicity against human SK-MEL-28 cells assessed as cell growth at 10^-5 M after 48 hrs by sulforhodamine B assay
Assay type: functional
Details: SK-MEL-28, 48 h, read-out: Activity

Q: Which growth at 10 µM does the source give for `CN1C(=O)C(=Cc2cn(CC(O)Cn3cc(C=C4C(=O)N(C)C(=O)N(C)C4=O)c4ccccc43)c3ccccc23)C(=O)N(C)C1=O` here?
A: Its growth at 10 µM is 109%.

System: not listed separately
Experiment: Cytotoxicity against human UACC257 cells assessed as cell growth at 10^-5 M after 48 hrs by sulforhodamine B assay
Assay type: functional
Details: UACC-257, 48 h, read-out: Activity

Q: Which growth at 10 µM does the source give for `CN1C(=O)C(=Cc2cn(CC(O)Cn3cc(C=C4C(=O)N(C)C(=O)N(C)C4=O)c4ccccc43)c3ccccc23)C(=O)N(C)C1=O` here?
A: The growth at 10 µM was 127%.

System: not listed separately
Experiment: Cytotoxicity against human IGROV1 cells assessed as cell growth at 10^-5 M after 48 hrs by sulforhodamine B assay
Assay type: functional
Details: IGROV-1, 48 h, read-out: Activity

Q: With `CN1C(=O)C(=Cc2cn(CC(O)Cn3cc(C=C4C(=O)N(C)C(=O)N(C)C4=O)c4ccccc43)c3ccccc23)C(=O)N(C)C1=O` as the molecule, how does the growth at 10 µM read?
A: The growth at 10 µM was 78.8%.

System: not listed separately
Experiment: Cytotoxicity against human OVCAR5 cells assessed as cell growth at 10^-5 M after 48 hrs by sulforhodamine B assay
Assay type: functional
Details: OVCAR-5, 48 h, read-out: Activity

Q: With `CN1C(=O)C(=Cc2cn(CC(O)Cn3cc(C=C4C(=O)N(C)C(=O)N(C)C4=O)c4ccccc43)c3ccccc23)C(=O)N(C)C1=O` as the molecule, how does the growth at 10 µM read?
A: Its growth at 10 µM is 90.5%.

System: not listed separately
Experiment: Cytotoxicity against human NCI-ADR-RES cells assessed as cell growth at 10^-5 M after 48 hrs by sulforhodamine B assay
Assay type: functional
Details: read-out: Activity

Q: With `CN1C(=O)C(=Cc2cn(CC(O)Cn3cc(C=C4C(=O)N(C)C(=O)N(C)C4=O)c4ccccc43)c3ccccc23)C(=O)N(C)C1=O` as the molecule, how does the growth at 10 µM read?
A: The growth at 10 µM was 105%.

System: not listed separately
Experiment: Cytotoxicity against human SKOV3 cells assessed as cell growth at 10^-5 M after 48 hrs by sulforhodamine B assay
Assay type: functional
Details: SK-OV-3, 48 h, read-out: Activity

Q: With `CN1C(=O)C(=Cc2cn(CC(O)Cn3cc(C=C4C(=O)N(C)C(=O)N(C)C4=O)c4ccccc43)c3ccccc23)C(=O)N(C)C1=O` as the molecule, how does the growth at 10 µM read?
A: The growth at 10 µM was 85.2%.

System: 786-0
Experiment: Cytotoxicity against human 786-0 cells assessed as cell growth at 10^-5 M after 48 hrs by sulforhodamine B assay
Assay type: functional
Details: 786-0, 48 h, read-out: Activity

Q: For `CN1C(=O)C(=Cc2cn(CC(O)Cn3cc(C=C4C(=O)N(C)C(=O)N(C)C4=O)c4ccccc43)c3ccccc23)C(=O)N(C)C1=O`, which growth at 10 µM is on record?
A: The growth at 10 µM was 100%.

System: A498
Experiment: Cytotoxicity against human A498 cells assessed as cell growth at 10^-5 M after 48 hrs by sulforhodamine B assay
Assay type: functional
Details: A498, 48 h, read-out: Activity

Q: Which growth at 10 µM does the source give for `CN1C(=O)C(=Cc2cn(CC(O)Cn3cc(C=C4C(=O)N(C)C(=O)N(C)C4=O)c4ccccc43)c3ccccc23)C(=O)N(C)C1=O` here?
A: The growth at 10 µM was 98.4%.

System: not listed separately
Experiment: Cytotoxicity against human Caki1 cells assessed as cell growth at 10^-5 M after 48 hrs by sulforhodamine B assay
Assay type: functional
Details: CAKI-1, 48 h, read-out: Activity

Q: Which growth at 10 µM does the source give for `CN1C(=O)C(=Cc2cn(CC(O)Cn3cc(C=C4C(=O)N(C)C(=O)N(C)C4=O)c4ccccc43)c3ccccc23)C(=O)N(C)C1=O` here?
A: Its growth at 10 µM is 90.8%.

System: not listed separately
Experiment: Cytotoxicity against human RXF393 cells assessed as cell growth at 10^-5 M after 48 hrs by sulforhodamine B assay
Assay type: functional
Details: RXF 393, 48 h, read-out: Activity

Q: For `CN1C(=O)C(=Cc2cn(CC(O)Cn3cc(C=C4C(=O)N(C)C(=O)N(C)C4=O)c4ccccc43)c3ccccc23)C(=O)N(C)C1=O`, which growth at 10 µM is on record?
A: Its growth at 10 µM is 104%.

System: not listed separately
Experiment: Cytotoxicity against human UO31 cells assessed as cell growth at 10^-5 M after 48 hrs by sulforhodamine B assay
Assay type: functional
Details: UO-31, 48 h, read-out: Activity

Q: Which growth at 10 µM does the source give for `CN1C(=O)C(=Cc2cn(CC(O)Cn3cc(C=C4C(=O)N(C)C(=O)N(C)C4=O)c4ccccc43)c3ccccc23)C(=O)N(C)C1=O` here?
A: The growth at 10 µM was 63.8%.

System: not listed separately
Experiment: Cytotoxicity against human PC3 cells assessed as cell growth at 10^-5 M after 48 hrs by sulforhodamine B assay
Assay type: functional
Details: PC-3, 48 h, read-out: Activity

Q: Which growth at 10 µM does the source give for `CN1C(=O)C(=Cc2cn(CC(O)Cn3cc(C=C4C(=O)N(C)C(=O)N(C)C4=O)c4ccccc43)c3ccccc23)C(=O)N(C)C1=O` here?
A: Its growth at 10 µM is 79.6%.

System: not listed separately
Experiment: Cytotoxicity against human DU145 cells assessed as cell growth at 10^-5 M after 48 hrs by sulforhodamine B assay
Assay type: functional
Details: DU-145, 48 h, read-out: Activity

Q: With `CN1C(=O)C(=Cc2cn(CC(O)Cn3cc(C=C4C(=O)N(C)C(=O)N(C)C4=O)c4ccccc43)c3ccccc23)C(=O)N(C)C1=O` as the molecule, how does the growth at 10 µM read?
A: The growth at 10 µM was 106%.

System: MDA-MB-231
Experiment: Cytotoxicity against human MDA-MB-231 cells assessed as cell growth at 10^-5 M after 48 hrs by sulforhodamine B assay
Assay type: functional
Details: MDA-MB-231, 48 h, read-out: Activity

Q: For `CN1C(=O)C(=Cc2cn(CC(O)Cn3cc(C=C4C(=O)N(C)C(=O)N(C)C4=O)c4ccccc43)c3ccccc23)C(=O)N(C)C1=O`, which growth at 10 µM is on record?
A: Its growth at 10 µM is 78.3%.

System: not listed separately
Experiment: Cytotoxicity against human BT549 cells assessed as cell growth at 10^-5 M after 48 hrs by sulforhodamine B assay
Assay type: functional
Details: BT-549, 48 h, read-out: Activity

Q: Which growth at 10 µM does the source give for `CN1C(=O)C(=Cc2cn(CC(O)Cn3cc(C=C4C(=O)N(C)C(=O)N(C)C4=O)c4ccccc43)c3ccccc23)C(=O)N(C)C1=O` here?
A: The growth at 10 µM was 92.3%.
